pIC50: −log10 of the molar value. Activity calls are given as the source filed them. The calls are words filed in the database; no cut-off is given here.
Legend:
[1] = molecular target: Cyclin-dependent kinase 2/cyclin E1 (Homo sapiens, UniProt P24941); test: Inhibition of recombinant human CDK2/cyclin E after 40 mins by ADP-Glo reagent based luminescence assay; type: protein-complex assay
[2] = test system: MDA-MB-468; test: Cell cycle arrest in human MDA-MB-468 cells assessed as accumulation at S phase at 15 uM after 24 hrs by propidium iodide staining based flow cytometry (reference value: 39.46%); type: functional
[3] = test system: MDA-MB-468; test: Induction of apoptosis in human MDA-MB-468 cells assessed as late apoptotic cells at 15 uM after 24 hrs by Annexin V-FITC/PI staining based flow cytometry (reference value: 2.49%); type: functional
[4] = test system: 786-0; test: Growth inhibition of human 786-O cells at 20 uM by MTT assay; type: functional, cell-based
[5] = test system: MDA-MB-468; test: Induction of apoptosis in human MDA-MB-468 cells assessed as early apoptotic cells at 15 uM after 6 hrs by Annexin V-FITC/PI staining based flow cytometry (reference value: 5.74%); type: functional
[6] = molecular target: Cyclin-dependent kinase 2 (Homo sapiens) (UniProt P24941); test: Inhibition of CDK2 in human MDA-MB-468 cells assessed as increase in cleaved PARP expression level at 15 uM measured up to 36 hrs by Western blot analysis; type: cell-based
[7] = test system: MDA-MB-468; test: Growth inhibition of human MDA-MB-468 cells at 20 uM by MTT assay; type: functional, cell-based
[8] = test system: MDA-MB-468; test: Antiproliferative activity against human MDA-MB-468 cells after 24 hrs by MTT assay; type: functional, cell-based; details: MDA-MB-468, 24 h
[9] = test system: MDA-MB-468; test: Cell cycle arrest in human MDA-MB-468 cells assessed as accumulation at G1 phase at 15 uM after 24 hrs by propidium iodide staining based flow cytometry (reference value: 46.38%); type: functional
[10] = molecular target: CDK7/Cyclin H/MNAT1 (Homo sapiens, UniProt P50613); test: Inhibition of recombinant human CDK7/cyclin H/MNAT1 after 40 mins by ADP-Glo reagent based luminescence assay; type: protein-complex assay
[11] = test system: MDA-MB-468; test: Induction of apoptosis in human MDA-MB-468 cells assessed as late apoptotic cells at 15 uM after 12 hrs by Annexin V-FITC/PI staining based flow cytometry (reference value: 2.49%); type: functional
[12] = test system: MDA-MB-468; test: Induction of apoptosis in human MDA-MB-468 cells assessed as late apoptotic cells at 15 uM after 6 hrs by Annexin V-FITC/PI staining based flow cytometry (reference value: 2.49%); type: functional
[13] = molecular target: Cyclin-dependent kinase 2 (Homo sapiens) (UniProt P24941); test: Inhibition of CDK2 in human MDA-MB-468 cells assessed as decrease in cyclin E phosphorylation at Thr62 residues at 15 uM after 12 to 26 hrs by Western blot analysis; type: cell-based
[14] = test system: MCF7; test: Growth inhibition of human MCF7 cells at 20 uM by MTT assay; type: functional, cell-based
[15] = test system: MDA-MB-468; test: Induction of apoptosis in human MDA-MB-468 cells assessed as viable cells at 15 uM after 6 hrs by Annexin V-FITC/PI staining based flow cytometry (reference value: 91.43%); type: functional; details: MDA-MB-468, 6 h, read-out: Activity
[16] = test system: MDA-MB-231; test: Growth inhibition of human MDA-MB-231 cells at 20 uM by MTT assay; type: functional, cell-based
[17] = test system: MDA-MB-468; test: Induction of apoptosis in human MDA-MB-468 cells assessed as viable cells at 15 uM after 12 hrs by Annexin V-FITC/PI staining based flow cytometry (reference value: 91.43%); type: functional; details: MDA-MB-468, 12 h, read-out: Activity
[18] = test system: MDA-MB-468; test: Induction of morphological changes in human MDA-MB-468 cells at 15 uM after 6 to 24 hrs by Hoechst 33258 staining based fluorescence microscopy; type: functional, cell-based
[19] = test system: MDA-MB-468; test: Induction of apoptosis in human MDA-MB-468 cells assessed as necrotic cells at 15 uM after 6 hrs by Annexin V-FITC/PI staining based flow cytometry (reference value: 0.34%); type: functional
[20] = test system: MDA-MB-468; test: Induction of apoptosis in human MDA-MB-468 cells assessed as necrotic cells at 15 uM after 12 hrs by Annexin V-FITC/PI staining based flow cytometry (reference value: 0.34%); type: functional
[21] = test system: MDA-MB-468; test: Antiproliferative activity against human MDA-MB-468 cells after 48 hrs by MTT assay; type: functional, cell-based; details: MDA-MB-468, 48 h
[22] = molecular target: Cyclin-dependent kinase 4/cyclin D1 (Homo sapiens, UniProt P11802); test: Inhibition of recombinant human CDK4/cyclin D1 after 40 mins by ADP-Glo reagent based luminescence assay; type: protein-complex assay
[23] = molecular target: Cyclin-dependent kinase 2 (Homo sapiens) (UniProt P24941); test: Inhibition of CDK2 in human MDA-MB-468 cells assessed as decrease in caspase 3 expression level at 15 uM measured up to 36 hrs by Western blot analysis; type: cell-based
[24] = molecular target: Cyclin-dependent kinase 2 (Homo sapiens) (UniProt P24941); test: Inhibition of CDK2 in human MDA-MB-468 cells assessed as decrease in CDK2 phosphorylation at […] residues at 15 uM after 12 to 26 hrs by Western blot analysis; type: cell-based
[25] = molecular target: Cyclin-dependent kinase 2 (Homo sapiens) (UniProt P24941); test: Inhibition of CDK2 in human MDA-MB-468 cells assessed as increase in bax expression level at 15 uM measured up to 36 hrs by Western blot analysis; type: cell-based
[26] = test system: MDA-MB-468; test: Antiproliferative activity against human MDA-MB-468 cells after 72 hrs by MTT assay; type: functional, cell-based; details: MDA-MB-468, 72 h
[27] = test system: MDA-MB-468; test: Effect on cyclin E level in human CDK2-siRNA MDA-MB-468 cells at 15 uM by Western blot analysis; type: functional, cell-based
[28] = test system: WM 266-4; test: Growth inhibition of human WM266.4 cells at 20 uM by MTT assay; type: functional, cell-based
[29] = test system: MDA-MB-468; test: Effect on bim level in human CDK2-siRNA MDA-MB-468 cells at 15 uM by Western blot analysis; type: functional, cell-based
[30] = molecular target: CDK6/cyclin D3 (Homo sapiens, UniProt Q00534); test: Inhibition of recombinant human CDK6/cyclin D3 after 40 mins by ADP-Glo reagent based luminescence assay; type: protein-complex assay
[31] = molecular target: Cyclin-dependent kinase 2 (Homo sapiens) (UniProt P24941); test: Inhibition of CDK2 in human MDA-MB-468 cells assessed as increase in bim expression level at 15 uM measured up to 36 hrs by Western blot analysis; type: cell-based
[32] = test system: HepG2; test: Growth inhibition of human HepG2 cells at 20 uM by MTT assay; type: functional, cell-based
[33] = molecular target: Cyclin-dependent kinase 2 (Homo sapiens) (UniProt P24941); test: Inhibition of CDK2 in human MDA-MB-468 cells assessed as increase in cleaved caspase 3 expression level at 15 uM measured up to 36 hrs by Western blot analysis; type: cell-based
[34] = test system: MDA-MB-468; test: Induction of apoptosis in human MDA-MB-468 cells assessed as early apoptotic cells at 15 uM after 12 hrs by Annexin V-FITC/PI staining based flow cytometry (reference value: 5.74%); type: functional
[35] = test system: MDA-MB-468; test: Cell cycle arrest in human MDA-MB-468 cells assessed as accumulation at G2 phase at 15 uM after 24 hrs by propidium iodide staining based flow cytometry (reference value: 14.16%); type: functional
[36] = test system: MDA-MB-468; test: Induction of apoptosis in human MDA-MB-468 cells assessed as necrotic cells at 15 uM after 24 hrs by Annexin V-FITC/PI staining based flow cytometry (reference value: 0.34%); type: functional
[37] = test system: MDA-MB-468; test: Induction of apoptosis in human MDA-MB-468 cells assessed as viable cells at 15 uM after 24 hrs by Annexin V-FITC/PI staining based flow cytometry (reference value: 91.43%); type: functional; details: MDA-MB-468, 24 h, read-out: Activity
[38] = test system: MDA-MB-468; test: Induction of apoptosis in human MDA-MB-468 cells assessed as early apoptotic cells at 15 uM after 24 hrs by Annexin V-FITC/PI staining based flow cytometry (reference value: 5.74%); type: functional

Chain of CDK7/Cyclin H/MNAT1 (P51946 whole entry): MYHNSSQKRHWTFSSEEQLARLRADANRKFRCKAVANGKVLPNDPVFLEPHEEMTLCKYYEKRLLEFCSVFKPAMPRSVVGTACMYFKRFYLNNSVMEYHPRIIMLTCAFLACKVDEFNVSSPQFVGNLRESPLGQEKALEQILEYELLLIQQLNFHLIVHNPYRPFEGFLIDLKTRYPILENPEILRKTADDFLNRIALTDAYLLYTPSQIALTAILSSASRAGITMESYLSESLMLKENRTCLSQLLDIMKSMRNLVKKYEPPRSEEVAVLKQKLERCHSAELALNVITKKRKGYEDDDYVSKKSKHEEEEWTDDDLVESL
Chain of CDK7/Cyclin H/MNAT1 (P50613 whole entry): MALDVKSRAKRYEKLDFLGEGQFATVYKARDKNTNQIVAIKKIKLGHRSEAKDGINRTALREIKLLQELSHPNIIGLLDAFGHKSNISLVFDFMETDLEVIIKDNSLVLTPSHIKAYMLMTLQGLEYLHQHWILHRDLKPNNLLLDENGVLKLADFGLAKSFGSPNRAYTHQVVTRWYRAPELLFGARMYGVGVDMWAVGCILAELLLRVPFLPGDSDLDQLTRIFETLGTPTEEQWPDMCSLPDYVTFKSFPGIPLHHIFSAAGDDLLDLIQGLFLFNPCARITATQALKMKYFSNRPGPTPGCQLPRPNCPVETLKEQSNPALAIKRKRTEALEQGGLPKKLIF
Chain of CDK7/Cyclin H/MNAT1 (P51948 whole entry, further chain): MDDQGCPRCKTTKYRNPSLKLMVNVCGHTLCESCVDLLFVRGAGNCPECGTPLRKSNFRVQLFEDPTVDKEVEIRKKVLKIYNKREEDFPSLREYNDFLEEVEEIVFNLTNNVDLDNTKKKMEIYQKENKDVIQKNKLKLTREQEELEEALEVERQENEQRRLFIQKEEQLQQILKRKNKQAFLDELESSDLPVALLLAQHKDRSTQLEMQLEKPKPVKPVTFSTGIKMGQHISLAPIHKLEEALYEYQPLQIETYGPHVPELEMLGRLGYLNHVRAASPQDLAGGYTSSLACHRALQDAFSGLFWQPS
Chain of Cyclin-dependent kinase 4/cyclin D1 (P11802 whole entry): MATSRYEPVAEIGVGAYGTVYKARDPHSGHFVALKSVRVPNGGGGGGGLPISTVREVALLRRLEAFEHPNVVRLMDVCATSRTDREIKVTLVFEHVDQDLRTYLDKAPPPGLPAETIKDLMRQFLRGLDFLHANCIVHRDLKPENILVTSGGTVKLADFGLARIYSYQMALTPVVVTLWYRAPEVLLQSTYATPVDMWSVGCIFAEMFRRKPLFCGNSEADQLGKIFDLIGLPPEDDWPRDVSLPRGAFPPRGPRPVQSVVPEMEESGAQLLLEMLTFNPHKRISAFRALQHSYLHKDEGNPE
Chain of Cyclin-dependent kinase 4/cyclin D1 (P24385 whole entry, further chain): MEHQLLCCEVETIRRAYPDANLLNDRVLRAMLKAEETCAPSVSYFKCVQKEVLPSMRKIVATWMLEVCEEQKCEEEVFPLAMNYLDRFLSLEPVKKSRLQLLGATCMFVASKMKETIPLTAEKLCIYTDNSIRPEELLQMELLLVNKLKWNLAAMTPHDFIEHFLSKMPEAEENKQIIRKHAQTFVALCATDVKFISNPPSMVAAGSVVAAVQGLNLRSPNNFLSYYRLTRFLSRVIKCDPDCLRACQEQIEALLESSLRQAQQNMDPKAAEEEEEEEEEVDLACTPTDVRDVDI
Chain of CDK6/cyclin D3 (P30281 whole entry): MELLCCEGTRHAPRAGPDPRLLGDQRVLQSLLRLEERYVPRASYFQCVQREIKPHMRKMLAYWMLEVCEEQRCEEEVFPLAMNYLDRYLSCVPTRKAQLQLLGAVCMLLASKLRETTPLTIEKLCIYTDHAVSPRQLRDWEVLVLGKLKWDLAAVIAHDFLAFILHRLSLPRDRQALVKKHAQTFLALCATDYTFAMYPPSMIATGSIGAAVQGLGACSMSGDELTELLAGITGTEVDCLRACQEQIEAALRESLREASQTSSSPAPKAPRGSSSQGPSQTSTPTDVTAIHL
Chain of CDK6/cyclin D3 (Q00534 whole entry): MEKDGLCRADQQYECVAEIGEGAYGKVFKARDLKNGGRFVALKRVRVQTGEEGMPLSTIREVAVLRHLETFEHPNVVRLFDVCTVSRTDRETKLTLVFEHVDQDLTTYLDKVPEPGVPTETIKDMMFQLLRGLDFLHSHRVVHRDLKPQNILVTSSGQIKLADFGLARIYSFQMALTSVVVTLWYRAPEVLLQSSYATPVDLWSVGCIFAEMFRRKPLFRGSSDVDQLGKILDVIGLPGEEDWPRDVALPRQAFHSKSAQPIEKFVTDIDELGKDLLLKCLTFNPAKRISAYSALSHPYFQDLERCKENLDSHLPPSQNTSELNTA

## O=C(NC1CCN(c2nccc(Nc3ccc(F)cc3)n2)CC1)c1ccc(F)cc1
[1]
  pIC50: 6.82

## Cc1ccc(C(=O)NC2CCN(c3nc(C)cc(Nc4ccc(F)cc4)n3)CC2)cc1
[1]
  pIC50: 6.54

## COc1ccc(C(=O)NC2CCN(c3nc(C)cc(Nc4ccc(F)cc4)n3)CC2)cc1
[1]
  pIC50: 7.27

## COc1ccc(Nc2ccnc(N3CCC(NC(=O)c4ccccc4F)CC3)n2)cc1
[1]
  pIC50: 6.55

## Cc1cccc(C(=O)NC2CCN(c3nc(C)cc(Nc4ccc(F)cc4)n3)CC2)c1
[1]
  pIC50: 6.42

## Cc1ccc(C(=O)NC2CCN(c3nccc(Nc4ccccc4C)n3)CC2)cc1
[1]
  pIC50: 6.25

## Cc1cc(Nc2ccc(F)cc2)nc(N2CCC(NC(=O)c3ccccc3F)CC2)n1
[1]
  pIC50: 6.69

## Cc1cc(Nc2ccc(F)cc2)nc(N2CCC(NC(=O)c3ccc(F)cc3)CC2)n1
[1]
  pIC50: 6.82

## Cc1cc(Nc2ccc(F)cc2)nc(N2CCC(NC(=O)c3cccc(Cl)c3)CC2)n1
[1]
  pIC50: 6.54

## COc1ccc(Nc2ccnc(N3CCC(NC(=O)c4ccc(OC)cc4)CC3)n2)cc1
[1]
  pIC50: 6.56

## Cc1ccccc1Nc1ccnc(N2CCC(NC(=O)c3ccc(F)cc3)CC2)n1
[1]
  pIC50: 6.34

## COc1ccc(Nc2ccnc(N3CCC(NC(=O)c4ccc(C)cc4)CC3)n2)cc1
[1]
  pIC50: 6.42

## Cc1ccccc1Nc1ccnc(N2CCC(NC(=O)c3cccc(Cl)c3)CC2)n1
[1]
  pIC50: 6.30

## COc1ccc(Nc2ccnc(N3CCC(NC(=O)c4ccc(F)cc4)CC3)n2)cc1
[1]
  pIC50: 6.39

## Cc1ccccc1Nc1ccnc(N2CCC(NC(=O)c3ccccc3F)CC2)n1
[1]
  pIC50: 6.40

## Cc1cccc(C(=O)NC2CCN(c3nccc(Nc4ccccc4C)n3)CC2)c1
[1]
  pIC50: 6.54

## Cc1ccc(C(=O)NC2CCN(c3nccc(Nc4ccc(F)cc4)n3)CC2)cc1
[1]
  pIC50: 6.56

## COc1ccc(C(=O)NC2CCN(c3nccc(Nc4ccc(F)cc4)n3)CC2)cc1
[2]
  Activity: 25.25%
[3]
  Activity: 24.68%
[4]
  growth inhibition (GI): Active
[5]
  Activity: 4.62%
[6]
  inhibition: Active
[7]
  growth inhibition (GI): Active
[8]
  pIC50: 4.85
[9]
  Activity: 65.11%
[10]
  pIC50: 7.05
[11]
  Activity: 16.82%
[12]
  Activity: 5.28%
[13]
  inhibition: Active
[14]
  growth inhibition (GI): Active
[15]
  viability at 15 µM: 89.2%
[16]
  growth inhibition (GI): Active
[17]
  viability at 15 µM: 76.6%
[18]
  Activity: Active
[1]
  pIC50: 7.27 to 7.34
[19]
  Activity: 0.87%
[20]
  Activity: 2.73%
[21]
  pIC50: 5.05
[22]
  pIC50: 6.56
[23]
  inhibition: Active
[24]
  inhibition: Active
[25]
  inhibition: Active
[26]
  pIC50: 5.24
[27]
  Activity: inactive
[28]
  growth inhibition (GI): Active
[29]
  Activity: inactive
[30]
  pIC50: 7.13 to 7.27
[31]
  inhibition: Active
[32]
  growth inhibition (GI): Active
[33]
  inhibition: Active
[34]
  Activity: 3.82%
[35]
  Activity: 9.64%
[36]
  Activity: 3.46%
[37]
  viability at 15 µM: 65.8%
[38]
  Activity: 6.02%

## O=C(NC1CCN(c2nccc(Nc3ccc(F)cc3)n2)CC1)c1cccc(Cl)c1
[1]
  pIC50: 6.69

## O=C(NC1CCN(c2nccc(Nc3ccc(F)cc3)n2)CC1)c1ccccc1F
[1]
  pIC50: 6.62

## COc1ccc(C(=O)NC2CCN(c3nccc(Nc4ccccc4C)n3)CC2)cc1
[1]
  pIC50: 6.54

## COc1ccc(Nc2ccnc(N3CCC(NC(=O)c4cccc(Cl)c4)CC3)n2)cc1
[1]
  pIC50: 6.50

## Cc1cccc(C(=O)NC2CCN(c3nccc(Nc4ccc(F)cc4)n3)CC2)c1
[1]
  pIC50: 6.41

## COc1ccc(Nc2ccnc(N3CCC(NC(=O)c4cccc(C)c4)CC3)n2)cc1
[1]
  pIC50: 6.32
